The values that follow come from ChEMBL document CHEMBL1150730, “Secondary metabolites from Fusarium. Two new modified trichothecenes from Fusarium sporotrichioides MC-72083” (J Nat Prod, 1987).

The series in a line: Toxicity in chick embryo measured per egg after 4 days. Further details: species or system Gallus gallus. Conditions: chicken, 96 h.

Molecules are shown by their SMILES. A value given as a limit tells only on which side of the number the result lay.

With `CC1=C[C@@H]2OC[C@]3(O)C(=O)CC[C@]3(C)[C@@]2(C)C[C@H]1O`, the LD50 was > 10 µg.
As for `CC1=C[C@@H]2OC[C@]3(O)C(=O)CC[C@]3(C)[C@@]2(C)C[C@@H]1O`, the LD50 was > 10 µg.
